# Test results from PMC5641445 (Journal of medicinal chemistry, 2017).
# Where a name gives a salt, the structure may show the parent alone.
# Key:
# [1] = Abbreviated pharmacokinetic study in mice after IP administration
# GRK2 = conditions: read-out: GRK2 IC50; Takeda compounds; cited from earlier work
# bovine GRK5 = bovine GRK5 (Bos taurus, UniProt P43249); experiment: GRK5 kinase inhibition; conditions: relative to paroxetine
# [2] = Metabolic stability in mouse liver microsomes; type: in vitro ADME; conditions: polar carboxamides on the paroxetine template
# mouse cardiomyocytes [3] = type: cell-based; conditions: at 0.5 μM or 1 μM
# [4] = target: mouse PKA catalytic subunits (Mus musculus, UniProt P05132); experiment: PKA inhibition, ADP-Glo Kinase Assay
# mouse cardiomyocytes [5] = conditions: cited from earlier work
# [6] = female, CD-1, mouse, plasma, ip, 10 mg/kg
# bovine GRK5, sequence (P43249 whole entry): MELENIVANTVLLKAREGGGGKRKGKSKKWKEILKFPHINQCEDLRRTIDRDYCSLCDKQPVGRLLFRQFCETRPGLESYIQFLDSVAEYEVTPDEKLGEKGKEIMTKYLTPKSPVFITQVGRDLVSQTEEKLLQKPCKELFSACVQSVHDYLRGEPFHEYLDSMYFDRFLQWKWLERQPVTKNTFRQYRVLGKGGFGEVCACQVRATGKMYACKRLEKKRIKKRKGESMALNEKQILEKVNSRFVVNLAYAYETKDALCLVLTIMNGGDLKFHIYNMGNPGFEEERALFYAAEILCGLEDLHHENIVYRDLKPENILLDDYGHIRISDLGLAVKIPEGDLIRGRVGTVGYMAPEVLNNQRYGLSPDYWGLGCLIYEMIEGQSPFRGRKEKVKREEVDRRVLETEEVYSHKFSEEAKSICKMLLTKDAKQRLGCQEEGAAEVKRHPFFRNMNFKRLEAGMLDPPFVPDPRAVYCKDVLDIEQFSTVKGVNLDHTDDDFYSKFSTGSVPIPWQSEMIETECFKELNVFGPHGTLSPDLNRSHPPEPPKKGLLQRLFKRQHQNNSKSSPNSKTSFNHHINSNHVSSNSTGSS
smiles,measurement,setting,value
"Cn1c(CNc2cccc(C(=O)NCc3ccccc3C(F)(F)F)c2)nnc1-c1ccncc1 [compound 2, reference compound]",half-life in vivo,"[1]; CD-1 mice, IP 10 mg/kg, estimated from four time points",too low to quantify
same,concentration at 30 min,[1]; [6],1830 nM
same,concentration at 2 h,[1]; [6],32 nM
same,concentration at 4 h,[1]; [6],5 nM
same,concentration at 7 h,[1]; [6],6 nM
same,IC50,GRK2,30 nM
"O=C(NCc1ccccn1)c1cc([C@@H]2CCNC[C@H]2COc2ccc3c(c2)OCO3)ccc1F [14ak, 5-((3S,4R)-3-((benzo[d][1,3]dioxol-5-yloxy)methyl)piperidin-4-yl)-2-fluoro-N-(pyridin-2-ylmethyl)benzamide hydrochloride]",increase in GRK5 potency,bovine GRK5,5 fold
same,"metabolic stability in MLM, in words",[2],substantial metabolic instability
same,"increase in contractility, in words",mouse cardiomyocytes [3],did not show a significant increase in contractility
same,IC50,[4],> 100000 nM
COc1cccc(OC)c1CNC(=O)c1cc(C2NC(=O)NC(C)=C2C(=O)Nc2ccc3[nH]ncc3c2)ccc1F (stereo not drawn) [compound 4],lower concentration than paroxetine enhancing myocardial contractility,mouse cardiomyocytes [5],20 fold
CC1=C(C(=O)Nc2ccc3[nH]ncc3c2)C(c2ccc(F)cc2)NC(=O)N1 (stereo not drawn) [compound 3],minimum dose needed to produce a significant contractility response,mouse cardiomyocytes [5],1 µM
